From PubChem BioAssay (NCI)
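Growth conditions: 96-well plates. Treatment: test compound, 48 hours, 5 concentrations. Analysis: linear interpolation between bracketing concentrations; unreached endpoints set to highest concentration. GI50 marks 50% less growth. TGI: total growth inhibition.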

Experiments:
Assay in all cases: NCI tumour cell line growth inhibition, 48 h
SW-620 colon = test system: SW-620 colon
IGROV1 ovarian = test system: IGROV1 ovarian
SF-268 CNS = test system: SF-268 CNS
NCI-H460 lung = test system: NCI-H460 lung
SF-539 CNS = test system: SF-539 CNS
NCI-H23 lung = test system: NCI-H23 lung
K-562 leukemia = test system: K-562 leukemia
RPMI-8226 leukemia = test system: RPMI-8226 leukemia
UO-31 renal = test system: UO-31 renal
BT-549 breast = test system: BT-549 breast

Compound	TGI (SW-620 colon) [µM]	TGI (IGROV1 ovarian) [µM]	TGI (SF-268 CNS) [µM]	TGI (NCI-H460 lung) [µM]	TGI (SF-539 CNS) [µM]	TGI (NCI-H23 lung) [µM]	TGI (K-562 leukemia) [µM]	TGI (RPMI-8226 leukemia) [µM]	TGI (UO-31 renal) [µM]	GI50 (SW-620 colon) [µM]	GI50 (RPMI-8226 leukemia) [µM]	GI50 (BT-549 breast) [µM]	TGI (BT-549 breast) [µM]	GI50 (IGROV1 ovarian) [µM]	GI50 (SF-268 CNS) [µM]	GI50 (NCI-H460 lung) [µM]	GI50 (SF-539 CNS) [µM]	GI50 (NCI-H23 lung) [µM]	GI50 (UO-31 renal) [µM]	GI50 (K-562 leukemia) [µM]
COC(=O)C1C(C(=O)OC)C2C(=O)C3C(C(=O)OC)C(C(=O)OC)C3C(=O)C12 (configuration not stated)	> 100	> 100	> 100	> 100	> 100	> 100	> 100	–	–	–	–	–	–	–	–	–	–	–	–	–
COc1cc([C@@H]2c3cc4c(cc3[C@@H](NC(=O)c3ccc(C#N)cc3)C3COC(=O)[C@@H]32)OCO4)cc(OC)c1O (some centres not stated)	10.7	5.13	16.9	1.43	1.66	0.837	> 100	11.7	15.3	–	–	–	–	–	–	–	–	–	–	–
COc1cc(Nc2cnc3ccc(C(F)(F)F)cc3n2)cc(OC)c1OC	> 100	–	> 100	> 100	> 100	> 100	–	> 100	> 100	–	–	–	–	–	–	–	–	–	–	–
COc1ccc2c(c1)C(=O)c1c-2c(Nc2ccccc2OC)nc2ccccc12	> 100	> 100	> 100	> 100	> 100	> 100	> 100	> 100	> 100	> 100	> 100	> 100	> 100	> 100	> 100	> 100	> 100	> 100	> 100	> 100
O=C1NC(=O)c2c1n(Cc1ccccc1)c(=O)n2Cc1ccccc1	> 100	> 100	> 100	> 100	> 100	> 100	> 100	> 100	> 100	–	–	–	–	–	–	–	–	–	–	–
Cc1ccc2c(c1)CN1c3ccc(C)cc3CN2C1c1ccccc1O	> 100	> 100	> 100	> 100	> 100	> 100	> 100	> 100	88.2	–	–	–	–	–	–	–	–	–	–	–
NNC(=O)C(=O)N/N=C1/CCCC1C(=O)CCC(=O)Nc1ccc(Cl)cc1 (configuration not stated)	> 100	> 100	> 100	> 100	> 100	> 100	> 100	> 100	> 100	–	–	–	–	–	–	–	–	–	–	–
CCCCCOc1ccc(/C=N/Nc2cc(C)nc3ccc(Cl)cc23)cc1	3.53	3.6	4.46	3.96	3.3	3.47	2.27	–	2.93	1.73	–	1.74	3.28	1.91	2.23	1.95	1.86	1.78	1.56	0.691
O=C1CC(c2ccccc2)Oc2ccccc21 (configuration not stated)	–	> 100	> 100	> 100	55	45.5	32.6	37.9	> 100	–	–	–	42.1	–	–	–	–	–	–	–
COc1ccc(C(=O)c2cc(OC)c(OC)c(OC)c2OC)cc1O	> 100	> 100	> 100	> 100	8.96	> 100	–	–	> 100	2.99	–	5.52	> 100	7.5	4.19	3.59	3.05	3.71	5.02	–
Nc1ncc(Cc2ccc3c(c2)OCO3)c(N)n1	> 100	> 100	> 100	> 100	> 100	> 100	> 100	> 100	> 100	–	–	–	–	–	–	–	–	–	–	–
OCc1cc2c(cn1)[nH]c1ccc(NCc3ccccc3)cc12	78.7	> 100	70.9	80.2	> 100	> 100	> 100	35.8	82.7	–	–	–	–	–	–	–	–	–	–	–
CC1=N/C(=C\c2ccc(/C=C3/N=C(C)OC3=O)cc2)C(=O)O1	> 100	> 100	> 100	–	> 100	> 100	> 100	> 100	> 100	–	–	–	–	–	–	–	–	–	–	–
COCC([C@@H](O)C(O)C(=O)NCC[C@@H](C)c1nc(/C=C/CC2OC3(C[C@H](O)C2C)OC(C(C[C@H](O)C(C)[C@H](O)C(C)/C=C(C)/C(C)=C/C=C/C(C)=C/C#N)OC)[C@@H](OP(=O)(O)O)C3(C)C)co1)N(C)C (some centres not stated)	0.000327	0.000296	0.000344	0.000272	0.00034	0.0021	–	–	0.00279	–	–	–	0.000312	–	–	–	–	–	–	–
O=c1/c(=C/c2ccccc2[N+](=O)[O-])sc2nnc(-c3cccnc3)n12	24.5	> 100	> 100	> 100	> 100	> 100	> 100	> 100	> 100	–	–	–	–	–	–	–	–	–	–	–
COC(=O)OC1C(O[C@H]2C[C@H]3[C@@H]4CC=C5C[C@@H](O)CC[C@]5(C)[C@H]4CC[C@]3(C)[C@H]2[C@H](C)C(=O)CCC(C)C)OCC(O)C1OC1OCC(O)C(O)C1OC(=O)c1ccc(OC)cc1 (some centres not stated)	0.277	> 27.5	2.24	0.332	0.0091	5.94	–	0.00491	0.0898	0.00877	< 0.00275	< 0.00275	3.45	0.0106	0.0137	0.00957	< 0.00275	0.138	0.017	–
FC(F)(F)Oc1cccc(-c2cc(NCCCCCCNc3cc(-c4cccc(OC(F)(F)F)c4)nc4ccc(N5CCCC5)cc34)c3cc(N4CCCC4)ccc3n2)c1	3.35	3.12	3.9	3.4	3.33	–	–	–	2.88	1.81	–	1.78	3.72	1.52	1.94	1.84	1.85	–	1.54	–
CCc1ccccc1NC(=O)c1cccc([N+](=O)[O-])c1O	> 100	> 100	> 100	71	> 100	72.5	> 100	> 100	71.6	–	–	–	–	–	–	–	–	–	–	–
